Experimental findings from US9255101B2 (BIOPROJECT, priority 2012, dated 2016) are described below.

For test [1], the target named is T1, human H4 receptor (Homo sapiens, UniProt Q9H3N8). Nature of the test: biochemical.
In test [2] the target is T1, human H4 receptor. Nature of the test: biochemical. The source holds these as a separate data set.

Counter-ions that a name gives are not always drawn.
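For IC50 in this document: membranes from SH-SY5Y cells with stable human H4 receptor expression, incubated with GDP 10 µM, radioactivity retained on filters counted by liquid scintillation.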
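For Ki in this document: radioligand displacement of a [3H]-labelled ligand from membranes of CHO cells stably expressing human H4 receptor, bound radioactivity counted on filters by liquid scintillation.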

T1 sequence (Q9H3N8 whole entry): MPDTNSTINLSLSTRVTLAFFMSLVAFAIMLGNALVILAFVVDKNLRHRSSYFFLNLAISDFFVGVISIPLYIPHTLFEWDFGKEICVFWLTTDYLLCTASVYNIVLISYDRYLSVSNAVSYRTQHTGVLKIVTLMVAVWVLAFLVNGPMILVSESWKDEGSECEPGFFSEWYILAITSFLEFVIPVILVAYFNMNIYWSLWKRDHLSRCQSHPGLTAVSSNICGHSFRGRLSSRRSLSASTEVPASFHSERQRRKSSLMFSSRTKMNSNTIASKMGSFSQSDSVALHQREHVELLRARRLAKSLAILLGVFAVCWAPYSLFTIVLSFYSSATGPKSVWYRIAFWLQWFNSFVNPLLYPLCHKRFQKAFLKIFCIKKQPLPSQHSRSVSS

By Ki is commonly meant a measure of affinity in units of concentration, obtained from inhibition or displacement. The low end stands for a stronger hold on the target, the high end for a looser hold on the target. Usually IC50 stands for the midpoint of a concentration-inhibition curve. For `CN1CCC(OC2c3ccccc3CCn3cc(-c4ccc(C(F)(F)F)cc4)nc32)CC1` (centres unmarked) [Example 25, 4-(1-methylpiperidin-4-yloxy)-2-(4-trifluoromethylphenyl)-9,10-dihydro-4H-3,10a-diaza-benzo[f]azulene], the Ki in test [1] is < 30 nM. Further, the half-inhibitory concentration (IC50) in test [2] is < 30 nM.
In the case of `CN1CCC(OC2c3ccccc3CCn3cc(-c4ccc(OC(F)(F)F)cc4)nc32)CC1` (centres unmarked) [Example 15, 4-(1-methylpiperidin-4-yloxy)-2-(4-trifluoromethoxyphenyl)-9,10-dihydro-4H-3,10a-diaza-benzo[f]azulene oxalate], in test [1], the Ki was < 30 nM. The half-inhibitory concentration (IC50) in test [2] was < 30 nM.
Take `Cc1c(-c2ccc(SC(C)(C)CCO)cc2)nc2n1CCc1ccccc1C2OC1CCN(C)CC1` (centres unmarked) [Example 152, 3-methyl-3-{4-[1-methyl-4-(1-methylpiperidin-4-yloxy)-9,10-dihydro-4H-3,10a-diaza-benzo[f]azulen-2-yl]-phenylsulfanyl}-butan-1-ol]: in test [1], the Ki was < 30 nM. In addition, in test [2], the 50% inhibitory concentration (IC50) is < 30 nM.
Take `Cc1c(-c2ccccc2)nc2n1CCc1ccccc1C2OC1CCN(C)CC1` (centres unmarked) [Example 103, 1-Methyl-4-(1-methyl-piperidin-4-yloxy)-2-phenyl-9,10-dihydro-4H-3,10a-diaza-benzo[f]azulene]: in test [1], the Ki is < 30 nM. Besides, the half-inhibitory concentration (IC50) in test [2] was < 30 nM.
For `CN1CCC(OC2c3ccccc3CCn3c2nc(I)c3I)CC1` (centres unmarked) [Example 219, 1,2-diiodo-4-(1-methylpiperidin-4-yloxy)-9,10-dihydro-4H-3,10a-diaza-benzo[f]azulene], in test [1], the Ki was < 30 nM. Also, the half-inhibitory concentration (IC50) in test [2] is < 30 nM.
With `Cc1c(-c2ccc(N(C)C(=O)OC(C)(C)C)cc2)nc2n1CCc1ccccc1C2OC1CCN(C)CC1` (centres unmarked) [Example 125, methyl-{4-[1-methyl-4-(1-methylpiperidin-4-yloxy)-9,10-dihydro-4H-3,10a-diaza-benzo[f]azulen-2-yl]-phenyl}carbamic acid tert-butyl ester], the inhibition constant (Ki) in test [1] is < 30 nM. Also, the IC50 in test [2] was < 30 nM.
For `CN1CCC(OC2c3ccccc3CCn3c2nc(-c2ccccc2)c3C(F)(F)F)CC1` (centres unmarked) [Example 255, 4-(1-methylpiperidin-4-yloxy)-2-phenyl-1-trifluoromethyl-9,10-dihydro-4H-3,10a-diaza-benzo[f]azulene], the Ki in test [1] is < 30 nM. Further, the IC50 in test [2] is < 300 nM.
The like results for `Cc1c(-c2ccc(NC(=S)NC(C)C)cc2)nc2n1CCc1ccccc1C2OC1CCN(C)CC1` (centres unmarked) [Example 206, 1-isopropyl-3-{4-[1-methyl-4-(1-methylpiperidin-4-yloxy)-9,10-dihydro-4H-3,10a-diazabenzo[f]azulen-2-yl]-phenyl}-thiourea] were, in that order, < 30 nM and < 30 nM.
In the case of `Cc1c(-c2ccc(N3CCN(C(C)(C)C)C3=O)cc2)nc2n1CCc1ccccc1C2OC1CCN(C)CC1` (centres unmarked) [Example 140, 1-tert-butyl-3-{4-[1-methyl-4-(1-methylpiperidin-4-yloxy)-9,10-dihydro-4H-3,10a-diaza-benzo[f]azulen-2-yl]-phenyl}-imidazolidin-2-one], in test [1], the Ki is < 30 nM. For the same molecule, in test [2], the IC50 is < 300 nM.
The like results for `CN1CCC(OC2c3ccccc3CCn3cc(C=Cc4ccsc4)nc32)CC1` (centres unmarked) [Example 112, 4-(1-methylpiperidin-4-yloxy)-2-(2-thiophen-3-ylvinyl)-9,10-dihydro-4H-3,10a-diaza-benzo[f]azulene] were, in that order, < 30 nM and < 30 nM.
The like results for `CCc1c(-c2ccccc2)nc2n1CCc1ccccc1C2OC1CCN(C)CC1` (centres unmarked) [Example 120, 1-ethyl-4-(1-methylpiperidin-4-yloxy)-2-phenyl-9,10-dihydro-4H-3,10a-diaza-benzo[f]azulene oxalate] were, in that order, < 30 nM and < 30 nM.
For the molecule `CN1CCC(OC2c3ccccc3CCn3cc(-c4ccsc4)nc32)CC1` (centres unmarked) [Example 12, 4-(1-methylpiperidin-4-yloxy)-2-thiophen-3-yl-9,10-dihydro-4H-3,10a-diaza-benzo[f]azulene], the Ki in test [1] was < 300 nM. Moreover, the IC50 in test [2] is < 300 nM.
Regarding `Cc1cccc(-c2cn3c(n2)C(OC2CCN(C)CC2)c2ccccc2CC3)c1` (centres unmarked) [Example 6, 4-(1-methyl-piperidin-4-yloxy)-2-m-tolyl-9,10-dihydro-4H-3,10a-diaza-benzo[f]azulene], the Ki in test [1] was < 300 nM. Moreover, the IC50 in test [2] was < 300 nM.
Regarding `C=CCc1cn2c(n1)C(OC1CCN(C)CC1)c1ccccc1CC2` (centres unmarked) [Example 30, 2-allyl-4-(1-methylpiperidin-4-yloxy)-9,10-dihydro-4H-3,10a-diaza-benzo[f]azulene oxalate], in test [1], the Ki was < 300 nM. The IC50 in test [2] was < 300 nM.
`CN1CCC(OC2c3ccccc3CCn3cc(SCCc4ccccc4)nc32)CC1` (centres unmarked) [Example 119, 4-(1-methylpiperidin-4-yloxy)-2-phenethylsulfanyl-9,10-dihydro-4H-3,10a-diaza-benzo[f]azulene]: the Ki in test [1] was < 30 nM. Further, the half-inhibitory concentration (IC50) in test [2] is < 30 nM.
Regarding `CCCc1ccc(-c2cn3c(n2)C(OC2CCN(C)CC2)c2ccccc2CC3)cc1` (centres unmarked) [Example 22, 4-(1-methylpiperidin-4-yloxy)-2-(4-propylphenyl)-9,10-dihydro-4H-3,10a-diaza-benzo[f]azulene], in test [1], the inhibitory constant (Ki) is < 30 nM. In test [2], the 50% inhibitory concentration (IC50) was < 300 nM.
The like results for `CN1CCC(OC2c3ccccc3CCn3c2nc(CCCCCc2ccccc2)c3Cl)CC1` (centres unmarked) [Example 139, 1-chloro-4-(1-methylpiperidin-4-yloxy)-2-(5-phenylpentyl)-9,10-dihydro-4H-3,10a-diaza-benzo[f]azulene oxalate] were, in that order, < 30 nM and < 30 nM.
The like results for `CN1CCC(OC2c3ccccc3CCn3cc(C4=CCCCCC4)nc32)CC1` (centres unmarked) [Example 80, 2-cyclohept-1-enyl-4-(1-methylpiperidin-4-yloxy)-9,10-dihydro-4H-3,10a-diaza-benzo[f]azulene] were, in that order, < 30 nM and < 300 nM.
The like results for `C=C(C)Cc1cn2c(n1)C(OC1CCN(C)CC1)c1ccccc1CC2` (centres unmarked) [Example 70, 2-(2-methyl-allyl)-4-(1-methylpiperidin-4-yloxy)-9,10-dihydro-4H-3,10a-diaza-benzo[f]azulene oxalate] were, in that order, < 300 nM and < 300 nM.
`Cc1ccc(-c2cn3c(n2)C(OC2CCN(C)CC2)c2ccccc2CC3)c(Cl)c1` (centres unmarked) [Example 75, 2-(2-chloro-4-methylphenyl)-4-(1-methylpiperidin-4-yloxy)-9,10-dihydro-4H-3,10a-diaza-benzo[f]azulene oxalate]: the Ki in test [1] is < 300 nM. In test [2], the IC50 is < 30 nM.
The like results for `CN1CCC(OC2c3ccccc3CCn3c2nc(-c2ccccc2)c3C(N)=O)CC1` (centres unmarked) [Example 254, 4-(1-methylpiperidin-4-yloxy)-2-phenyl-9,10-dihydro-4H-3,10a-diaza-benzo[f]azulene-1-carboxylic acid amide] were, in that order, < 300 nM and < 300 nM.
The like results for `CN1CCC(OC2c3ccccc3CCn3cc(C#CCNC(=O)OC(C)(C)C)nc32)CC1` (centres unmarked) [Example 72, {3-[4-(1-methylpiperidin-4-yloxy)-9,10-dihydro-4H-3,10a-diaza-benzo[f]azulen-2-yl]-prop-2-ynyl}-carbamic acid tert-butyl ester] were, in that order, < 30 nM and < 30 nM.
Turning to `CN1CCC(OC2c3ccccc3CCn3cc(-c4ccc(CC#N)cc4)nc32)CC1` (centres unmarked) [Example 33, {4-[4-(1-methylpiperidin-4-yloxy)-9,10-dihydro-4H-3,10a-diaza-benzo[f]azulen-2-yl]-phenyl}-acetonitrile oxalate], the Ki in test [1] was < 300 nM. Further, in test [2], the IC50 was < 300 nM.
As to `CC(=O)NCCSc1ccc(-c2nc3n(c2C)CCc2ccccc2C3OC2CCN(C)CC2)cc1` (centres unmarked) [Example 163, N-(2-{4-[1-methyl-4-(1-methylpiperidin-4-yloxy)-9,10-dihydro-4H-3,10a-diaza-benzo[f]azulen-2-yl]-phenylsulfanyl}-ethyl)-acetamide oxalate], the inhibition constant (Ki) in test [1] is < 30 nM. The IC50 in test [2] was < 30 nM.
On to `CN1CCC(OC2c3ccccc3CCn3cc(C=CC4CC4)nc32)CC1` (centres unmarked) [Example 99, 2-(2-cyclopropylvinyl)-4-(1-methylpiperidin-4-yloxy)-9,10-dihydro-4H-3,10a-diaza-benzo[f]azulene oxalate], for which the Ki in test [1] was < 300 nM. Moreover, the IC50 in test [2] was < 300 nM.
On to `CN1CCC(OC2c3ccccc3CCn3cc(-c4cccc(Cl)c4)nc32)CC1` (centres unmarked) [Example 77, 2-(3-chlorophenyl)-4-(1-methylpiperidin-4-yloxy)-9,10-dihydro-4H-3,10a-diaza-benzo[f]azulene oxalate], for which the inhibition constant (Ki) in test [1] was < 30 nM. In test [2], the 50% inhibitory concentration (IC50) was < 300 nM.
For `CC(=O)c1ccc(-c2cn3c(n2)C(OC2CCN(C)CC2)c2ccccc2CC3)cc1` (centres unmarked) [Example 11, 1-{4-[4-(1-methylpiperidin-4-yloxy)-9,10-dihydro-4H-3,10a-diaza-benzo[f]azulen-2-yl]-phenyl}ethanone], the Ki in test [1] was < 30 nM. In addition, the half-inhibitory concentration (IC50) in test [2] was < 300 nM.
The like results for `Cc1c(-c2ccc(SCc3ccccc3)cc2)nc2n1CCc1ccccc1C2OC1CCN(C)CC1` (centres unmarked) [Example 164, 2-(4-benzylsulfanylphenyl)-1-methyl-4-(1-methylpiperidin-4-yloxy)-9,10-dihydro-4H-3,10a-diaza-benzo[f]azulene oxalate] were, in that order, < 30 nM and < 30 nM.
The like results for `CN1CCC(OC2c3ccccc3CCn3cc(CCCCc4ccccc4)nc32)CC1` (centres unmarked) [Example 129, 4-(1-methylpiperidin-4-yloxy)-2-(4-phenylbutyl)-9,10-dihydro-4H-3,10a-diaza-benzo[f]azulene oxalate] were, in that order, < 30 nM and < 30 nM.
Regarding `CN1CCC(OC2c3ccccc3CCn3cc(-c4ccccc4Cl)nc32)CC1` (centres unmarked) [Example 26, 2-(2-chlorophenyl)-4-(1-methylpiperidin-4-yloxy)-9,10-dihydro-4H-3,10a-diaza-benzo[f]azulene oxalate], the Ki in test [1] is < 30 nM. Moreover, the IC50 in test [2] is < 300 nM.
Consider `CN1CCC(OC2c3ccccc3CCn3cc(-c4ccccc4F)nc32)CC1` (centres unmarked) [Example 27, 2-(2-fluorophenyl)-4-(1-methylpiperidin-4-yloxy)-9,10-dihydro-4H-3,10a-diaza-benzo[f]azulene], for which the inhibition constant Ki in test [1] was < 300 nM. Moreover, the IC50 in test [2] was < 300 nM.
